Assay results taken from patent US7910575B2, “Prophylactic or therapeutic agents for allergic ophthalmic diseases or allergic nasal diseases, comprising tricyclic triazolobenzazepine derivative” (Meiji Seika Kaisha, Ltd., priority 2006, dated 2011).
Marks after values point to notes of the source that are not given here.

Experiments:
[1] = test system: allergic rhinitis; test: Prophylactic effect on allergic rhinitis, oral administration; format: in vivo, rat; conditions: 15 min before antigen administration
Description: The prophylactic effect of compound B on allergic rihinitis in the same manner as in Test Example 4-1, except that compound B was suspended in hydroxypropylmethylcellulose and the suspension was orally administered. The medicament was administered 15 min before the administration of the antigin (start of allergy).

[2] = test system: rabbit eye (conjunctiva); test: Severe eye irritation test using rabbits; format: in vivo; conditions: 1%, instillation six times per day at 30 min intervals for two days
[3] = WO 99/16770; cited from earlier work

COc1cc2[nH]c(=O)c3nn(C(OC(=O)OC(C)C)C(C)C)nc3c(=O)c2cc1OC (stereo not shown) [Compound B, 2-(1-Isopropoxycarbonyloxy-2-methylpropyl)-7,8-dimethoxy-4(5H),10-dioxo-2H-1,2,3-triazolo[4,5-c][1]benzazepine]
Increase in dye leakage amount Inhibition ratio ([1]; 1 mg/kg (200 μg/rat)): 46.3% **
Increase in dye leakage amount Inhibition ratio ([1]; 5 mg/kg (1000 μg/rat)): 81.9% **
eye irritation [2]: only slight reddening of the conjunctiva was observed
improvement of absorption upon oral administration as compared with compound A [3]: by a factor of seven
